# Results as given in patent publication US11684614B2, “Formulations of hydroxypyridonate actinide/lanthanide decorporation agents” (priority 2017, dated 2023).
# Test: 3,4,3-LI(1,2-HOPO)-excipient compatibility study (visual observation, HPLC purity and impurities on storage)
# Type: physicochemical
# Settings: for 3L1O Purity / Total Impurities: n = 1
# Procedure: The objective of the analytical study described in this report was to evaluate the interactions between 3,4,3-L1(1,2-HOPO) and selected pharmaceutical excipients under 25° C./60% RH and 40° C./75% RH conditions over eight weeks. Physical appearance and potency of the different samples were assessed at T=0, 2, 4, and 8 weeks through visual observations and high performance liquid chromatography (HPLC) analysis.
# The stability of 3,4,3-L1(1,2-HOPO) was tested according to the conditions listed below in TABLE 1.1. A11 test samples were stored throughout the study in 40 mL clear USP Type 1 glass vials (28 mm OD×95 mm height; 24 mm screw cap), wrapped in aluminum foil.
# • Test Samples: Each test mixture was prepared by weighing the desired quantity of 3,4,3-L1(1,2-HOPO) and excipient (both screened through sieve #40) into vials. Both ingredients were first mixed using a clean glass rod and then vortexed. At each time interval, one vial was withdrawn from each drug-excipient series along with the corresponding placebo preparation and tested as described below.
# b. Sample Characterization • Visual Observation: For each sample solution, visual observation consisted in recording color and physical form.
# c. Chromatographic Assay and Purity Assessment • Standard Stock Solutions: For each standard stock solutions, the test article was weighed (200 mg) and dissolved by sonication into 30 mL of diluent (water:acetonitrile=90%:10%). After equilibration at room temperature, the volume of the standard solution was adjusted to 50 mL. Standard stock solutions were prepared in duplicates, working standard solutions were prepared by dilution of each stock with the diluent to the desired concentrations. • Calibration Standards: With each experiment, 5 calibration standard solutions at different concentrations were prepared from stock solutions using the diluent. Concentrations of the calibration standards were between 1.6 and 2.4 mg/mL. […] The vials were then mechanically shaken for 15 minutes, followed by centrifugation of the sample solutions (10,000 rpm, 10 min), and the supernatants were used for the assay. • Placebo Preparation: 25 mL of diluent was added to each of the placebo vial. The vials were then mechanically shaken for 15 minutes, followed by centrifugation of the sample solutions (10,000 rpm, 10 min), and the supernatants were used for the assay. Analytical Method: Instrument: Waters Alliance 2695 liquid chromatography system Column: Agilent, Eclipse XDB-C18, 4.6×150 mm, 5 μm. Mobile Phase A: 0.05% formic acid in 95% H2O: 5% ACN Mobile Phase B: 0.05% formic acid in acetonitrile (ACN)
# Column Temperature: 25° C. Flow Rate: 1.0 mL/min. Injection Volume: 10 μL Detection: 250 nm Run Time: 50 min Diluent: 9:1 H2O:ACN Analysis Sequence:
# • Suitability Requirements: There should be no interference from the diluent/blank at the retention times of 3,4,3-L1(1,2-HOPO) peaks. The relative standard deviation (% RSD) for five replicate system suitability injections should be below 2.0%. The response factor of the second standard should be within 95-105%. The correlation coefficient (R2) of the system linearity standards should be higher than 0.990. 5. Results
compound,measurement,setting,value
"O=C(NCCCN(CCCCN(CCCNC(=O)c1cccc(=O)n1O)C(=O)c1cccc(=O)n1O)C(=O)c1cccc(=O)n1O)c1cccc(=O)n1O [3,4,3-L1(1,2-HOPO)]",Unknown Impurity RRT 1.27,"40° C./75% RH, 2 Weeks",0.36 % w/w
same,Unknown Impurity RRT 1.3,"40° C./75% RH, 2 Weeks",0.16 % w/w
same,Unknown Impurity RRT 1.39,"40° C./75% RH, 2 Weeks",0.05 % w/w
same,Unknown Impurity RRT 1.41,"40° C./75% RH, 2 Weeks",0.01 % w/w
same,Unknown Impurity RRT 1.46,"40° C./75% RH, 2 Weeks",0.07 % w/w
same,Unknown Impurity RRT 2.31,"40° C./75% RH, 2 Weeks",0.05 % w/w
same,Unknown Impurity RRT 2.59,"40° C./75% RH, 2 Weeks",0.04 % w/w
same,Unknown Impurity RRT 2.8,"40° C./75% RH, 2 Weeks",0.03 % w/w
same,3L1O Purity,"40° C./75% RH, 2 Weeks",98.62 % Area
same,Total Impurities,"40° C./75% RH, 2 Weeks",1.38 % Area
same,Unknown Impurity RRT 0.24,"40° C./75% RH, 4 weeks",0.05 % w/w
same,Unknown Impurity RRT 0.58,"40° C./75% RH, 4 weeks",0.09 % w/w
same,Unknown Impurity RRT 0.6,"40° C./75% RH, 4 weeks",0.06 % w/w
same,Unknown Impurity RRT 0.62,"40° C./75% RH, 4 weeks",0.07 % w/w
same,Unknown Impurity RRT 0.81,"40° C./75% RH, 4 weeks",0.02 % w/w
same,Unknown Impurity RRT 0.87,"40° C./75% RH, 4 weeks",0.16 % w/w
same,Unknown Impurity RRT 0.89,"40° C./75% RH, 4 weeks",0.03 % w/w
same,Unknown Impurity RRT 1.02,"40° C./75% RH, 4 weeks",0.03 % w/w
same,Unknown Impurity RRT 1.11,"40° C./75% RH, 4 weeks",0.06 % w/w
same,Unknown Impurity RRT 1.27,"40° C./75% RH, 4 weeks",0.26 % w/w
same,Unknown Impurity RRT 1.3,"40° C./75% RH, 4 weeks",0.2 % w/w
same,Unknown Impurity RRT 1.39,"40° C./75% RH, 4 weeks",0.74 % w/w
same,Unknown Impurity RRT 1.41,"40° C./75% RH, 4 weeks",0.01 % w/w
same,Unknown Impurity RRT 1.46,"40° C./75% RH, 4 weeks",0.08 % w/w
same,Unknown Impurity RRT 1.72,"40° C./75% RH, 4 weeks",0.09 % w/w
same,Unknown Impurity RRT 2.3,"40° C./75% RH, 4 weeks",0.04 % w/w
same,Unknown Impurity RRT 2.59,"40° C./75% RH, 4 weeks",0.03 % w/w
same,Unknown Impurity RRT 2.79,"40° C./75% RH, 4 weeks",0.02 % w/w
same,3L1O Purity,"40° C./75% RH, 4 weeks",98.63 % Area
same,Total Impurities,"40° C./75% RH, 4 weeks",1.37 % Area
same,Unknown Impurity RRT 0.24,"40° C./75% RH, 8 Weeks",0.34 % w/w
same,Unknown Impurity RRT 0.58,"40° C./75% RH, 8 Weeks",0.2 % w/w
same,Unknown Impurity RRT 0.59,"40° C./75% RH, 8 Weeks",0.16 % w/w
same,Unknown Impurity RRT 0.62,"40° C./75% RH, 8 Weeks",0.18 % w/w
same,Unknown Impurity RRT 0.81,"40° C./75% RH, 8 Weeks",0.05 % w/w
same,Unknown Impurity RRT 0.87,"40° C./75% RH, 8 Weeks",0.18 % w/w
same,Unknown Impurity RRT 0.89,"40° C./75% RH, 8 Weeks",0.32 % w/w
same,Unknown Impurity RRT 0.91,"40° C./75% RH, 8 Weeks",0.11 % w/w
same,Unknown Impurity RRT 0.95,"40° C./75% RH, 8 Weeks",0.04 % w/w
same,Unknown Impurity RRT 1.02,"40° C./75% RH, 8 Weeks",0.09 % w/w
same,Unknown Impurity RRT 1.12,"40° C./75% RH, 8 Weeks",0.05 % w/w
same,Unknown Impurity RRT 1.27,"40° C./75% RH, 8 Weeks",0.4 % w/w
same,Unknown Impurity RRT 1.31,"40° C./75% RH, 8 Weeks",0.01 % w/w
same,Unknown Impurity RRT 1.39,"40° C./75% RH, 8 Weeks",0.08 % w/w
same,Unknown Impurity RRT 1.41,"40° C./75% RH, 8 Weeks",0 % w/w
same,Unknown Impurity RRT 1.46,"40° C./75% RH, 8 Weeks",0.12 % w/w
same,Unknown Impurity RRT 1.72,"40° C./75% RH, 8 Weeks",0.1 % w/w
same,Unknown Impurity RRT 2.31,"40° C./75% RH, 8 Weeks",0.03 % w/w
same,Unknown Impurity RRT 2.6,"40° C./75% RH, 8 Weeks",0.02 % w/w
same,Unknown Impurity RRT 2.8,"40° C./75% RH, 8 Weeks",0.02 % w/w
same,3L1O Purity,"40° C./75% RH, 8 Weeks",97.49 % Area
same,Total Impurities,"40° C./75% RH, 8 Weeks",2.51 % Area
same,Unknown Impurity RRT 0.58,Initial (T = 0),0.05 % w/w
same,Unknown Impurity RRT 0.59,Initial (T = 0),0.04 % w/w
same,Unknown Impurity RRT 0.62,Initial (T = 0),0.04 % w/w
same,Unknown Impurity RRT 0.87,Initial (T = 0),0.1 % w/w
same,Unknown Impurity RRT 0.89,Initial (T = 0),0.02 % w/w
same,Unknown Impurity RRT 1.03,Initial (T = 0),0.21 % w/w
same,Unknown Impurity RRT 1.11,Initial (T = 0),0.04 % w/w
same,Unknown Impurity RRT 1.27,Initial (T = 0),0.29 % w/w
same,Unknown Impurity RRT 1.3,Initial (T = 0),0.21 % w/w
same,Unknown Impurity RRT 1.39,Initial (T = 0),0.09 % w/w
same,Unknown Impurity RRT 1.41,Initial (T = 0),0.01 % w/w
same,Unknown Impurity RRT 1.46,Initial (T = 0),0.11 % w/w
same,Unknown Impurity RRT 2.31,Initial (T = 0),0.05 % w/w
same,3L1O Purity,Initial (T = 0),98.73 % Area
same,Total Impurities,Initial (T = 0),1.27 % Area
